Assay results published in patent US12048695B2, “Immediate release pharmaceutical formulation of 4-[3-(4-cyclopropanecarbonyl-piperazine-1-carbonyl)-4-fluoro-benzyl]-2H-phthalazin-1-one” (KUDOS PHARMACEUTICALS LIMITED, priority 2008, dated 2024).
In brackets after ≈: the same amount, converted by molar mass. Where two headings read alike, the source gives them in different places.

What was measured:
[1] = Solubility in real and simulated gastrointestinal media; assay type: physicochemical; conditions: thermodynamic from solid; for solubility thermodynamic at 24 hr: read-out: Equilibrium solubility, 24 hr
Protocol: The solubility of Compound 1 was also measured in real and simulated gastrointestinal media (Table 2).

[2] = Solubility in water and pH buffered solutions; assay type: physicochemical
Protocol: The solubility of crystalline Form A of Compound 1 was measured in water and a range of pH buffered solutions representing the physiological pH range. The physical form of any undissolved (or precipitated) Compound 1 was not assessed by XRPD after solubility determination. The Form A crystalline form of Compound 1 is disclosed in WO2008/047082.

[3] = Permeability across Caco-2 monolayers; assay type: in vitro ADME; conditions: human, Caco-2; for efflux ratio / Papp A→B / Papp B→A: marker compound, concentration not given
[4] = In vitro dissolution of Compound 1 preparations (USP Apparatus I, TRIS buffer pH 7.2); assay type: physicochemical
Protocol: Dissolution was performed according to the general procedure of the United States Pharmacopeia Apparatus I (Basket). An amount of material containing approximately 100 mg of Compound 1 was weighed accurately then transferred to a dissolution vessel containing 500 mL of TRIS buffer (0.05M tris(hydroxymethyl)aminomethane solution adjusted to pH 7.2 with hydrochloric acid) maintained at 37° C. and stirred at 100 rpm. […] Compound 1 concentration in the filtrate was determined by ultraviolet spectroscopy at a wavelength of 278 nm.

[5] = pKa; assay type: physicochemical; conditions: phthalazinone moiety
From the text: 4-[3-(4-cyclopropanecarbonyl-piperazine-1-carbonyl)-4-fluoro-benzyl]-2H-phthalazin-1-one (Compound 1) is a weakly acidic compound with a pKa of about 12.5 (phthalazinone moiety). It is essentially neutral across the physiological pH range.

[6] = system: Caco-2 monolayers; test: Permeability across Caco-2 monolayers; assay type: in vitro ADME
[7] = system: P-gp; test: Permeability across Caco-2 monolayers; assay type: in vitro ADME; conditions: human, Caco-2, 10 μM

`O=C(c1cc(Cc2n[nH]c(=O)c3ccccc23)ccc1F)N1CCN(C(=O)C2CC2)CC1` [Compound 1 (Form A), 4-[3-(4-cyclopropanecarbonyl-piperazine-1-carbonyl)-4-fluoro-benzyl]-2H-phthalazin-1-one] showed a solubility thermodynamic at 24 hr ([1]; Fasted State Simulated Intestinal Fluid (FaSSIF), fassif) of 130 µg/mL (≈ 299 µM), a solubility thermodynamic at 24 hr ([1]; Fed State Simulated Intestinal Fluid (FeSSIF), fessif) of 200 µg/mL (≈ 460 µM) and a solubility thermodynamic at 24 hr ([1]; Simulated Gastric Fluid (SGF), simulated gastric fluid) of 120 µg/mL (≈ 276 µM). The solubility thermodynamic at 24 hr ([1]; human, Human Gastric Fluid (HGF), plasma or biological fluid) was 150 µg/mL (≈ 345 µM), the solubility thermodynamic at 24 hr ([1]; human, Human Intestinal Fluid (HIF), plasma or biological fluid) was 170 µg/mL (≈ 391 µM) and the solubility at 1 hr ([2]; aqueous buffer, thermodynamic from solid, 0.1M NaOH, pH 12.5) was 650 µg/mL (≈ 1500 µM). The solubility at 24 hr ([2]; aqueous buffer, thermodynamic from solid, 0.1M NaOH, 24 hr, pH 12.4) was 599 µg/mL (≈ 1380 µM), the solubility at 1 hr ([2]; aqueous buffer, thermodynamic from solid, pH 3 Citrate Buffer, pH 2.9) was 124 µg/mL (≈ 285 µM) and the solubility at 24 hr ([2]; aqueous buffer, thermodynamic from solid, pH 3 Citrate Buffer, 24 hr, pH 2.9) was 112 µg/mL (≈ 258 µM). It also gave a solubility at 1 hr ([2]; aqueous buffer, thermodynamic from solid, pH 6.8 Phosphate Buffer, pH 6.9) of 111 µg/mL (≈ 255 µM), a solubility at 24 hr ([2]; aqueous buffer, thermodynamic from solid, pH 6.8 Phosphate Buffer, 24 hr, pH 6.9) of 96 µg/mL (≈ 221 µM) and a solubility at 1 hr ([2]; aqueous buffer, thermodynamic from solid, pH 9 Buffer, pH 8.9) of 116 µg/mL (≈ 267 µM). The solubility ([2]; pH 9 Buffer, 24 hr, pH 8.8) was 102 µg/mL (≈ 235 µM), the solubility at 1 hr ([2]; simulated gastric fluid, thermodynamic from solid, 0.1M HCl, pH 1.2) was 128 µg/mL (≈ 295 µM) and the solubility at 24 hr ([2]; simulated gastric fluid, thermodynamic from solid, 0.1M HCl, 24 hr, pH 1.2) was 114 µg/mL (≈ 262 µM). The solubility at 1 hr ([2]; thermodynamic from solid, Water, pH 5.6) was 124 µg/mL (≈ 285 µM) and the solubility at 24 hr ([2]; thermodynamic from solid, Water, 24 hr, pH 6.0) was 109 µg/mL (≈ 251 µM).

`C[C@H]1O[C@@H](O[C@H]2[C@@H](O)C[C@H](O[C@H]3[C@@H](O)C[C@H](O[C@H]4CC[C@@]5(C)[C@H](CC[C@@H]6[C@@H]5C[C@@H](O)[C@]5(C)[C@@H](C7=CC(=O)OC7)CC[C@]65O)C4)O[C@@H]3C)O[C@@H]2C)C[C@H](O)[C@@H]1O` [Digoxin, digoxin, reference compound] gave an efflux ratio [3] of 9.1, a Papp A→B ([3]; n = 3, ±S.D.) of 1.34 ± 0.03 ×10⁻⁶ cm/s and a Papp B→A ([3]; n = 3, ±S.D.) of 12.2 ± 1.37 ×10⁻⁶ cm/s.

For `O=C(c1cc(Cc2n[nH]c(=O)c3ccccc23)ccc1F)N1CCN(C(=O)C2CC2)CC1` [Drug only], the “Dissolution (% Release)” value ([4]; 15 min) was 15%, the “Dissolution (% Release)” value ([4]; 30 min) was 28% and the “Dissolution (% Release)” value ([4]; 45 min) was 43%. For the same compound, the “Dissolution (% Release)” value ([4]; 60 min) was 51%, the “Dissolution (% Release)” value ([4]; 75 min) was 58% and the “Dissolution (% Release)” value ([4]; 90 min) was 62%. For the same compound, the “Dissolution (% Release)” value ([4]; 105 min) was 68% and the “Dissolution (% Release)” value ([4]; 120 min) was 71%.

Compound `O=C(c1cc(Cc2n[nH]c(=O)c3ccccc23)ccc1F)N1CCN(C(=O)C2CC2)CC1` [Compound 1, 4-[3-(4-cyclopropanecarbonyl-piperazine-1-carbonyl)-4-fluoro-benzyl]-2H-phthalazin-1-one] has a solubility ([1]; fed state simulated intestinal fluid, fessif, read-out: highest solubility) of 200 µg/mL (≈ 460 µM), a solubility at 24 hr ([1]; human, real and simulated gastrointestinal media, fassgf or other biorelevant) of 120 to 200 µg/mL (≈ 276 to 460 µM) and a pKa [5] of roughly 12.5. The “permeability” value ([6]; compared to the high permeability marker propranolol) was “moderately permeable”, the “human Peff” value ([6]; equated from Caco-2 Papp) was 140 ×10⁻⁶ cm/s and the “efflux by P-gp” value ([6]; low concentrations (10 μM), inhibited by Elacridar) was “propensity for efflux by P-gp”. It also gave a Papp at 10 μM [3] of 3.67 ×10⁻⁶ cm/s, an efflux ratio at 260 μM ([3]; 260 μM) of 2.3 and a Papp A→B at 260 μM ([3]; 260 μM, n = 3, ±S.D.) of 7.75 ± 0.88 ×10⁻⁶ cm/s. The Papp B→A at 260 μM ([3]; 260 μM, n = 3, ±S.D.) was 17.8 ± 1.19 ×10⁻⁶ cm/s, the efflux ratio at 700 μM ([3]; 700 μM) was 1.8 and the Papp A→B at 700 μM ([3]; 700 μM, n = 3, ±S.D.) was 8.4 ± 0.41 ×10⁻⁶ cm/s. For the same compound, the Papp B→A at 700 μM ([3]; 700 μM, n = 3, ±S.D.) was 15.1 ± 1.42 ×10⁻⁶ cm/s, the efflux ratio at 10 μM [7] was 6.5 and the Papp A→B at 10 μM ([7]; n = 3, ±S.D.) was 3.67 ± 0.34 ×10⁻⁶ cm/s. For the same compound, the Papp B→A at 10 μM ([7]; n = 3, ±S.D.) was 23.7 ± 2.84 ×10⁻⁶ cm/s and the solubility thermodynamic ([2]; aqueous buffer, thermodynamic from solid, range of aqueous buffers (pH 1-9), read-out: aqueous equilibrium solubility) was roughly 100 µg/mL (≈ 230 µM).

With `CC(C)NCC(O)COc1cccc2ccccc12` (stereo not drawn) [Propranolol, propranolol, reference compound] the efflux ratio [3] was 1.1, the Papp A→B ([3]; n = 3, ±S.D.) was 20 ± 2.57 ×10⁻⁶ cm/s and the Papp B→A ([3]; n = 3, ±S.D.) was 21.5 ± 0.33 ×10⁻⁶ cm/s.
